Columns and labels:
Assay in all cases: Inhibition Assay
Cathepsin K = molecular target: T1, Cathepsin K (Homo sapiens, UniProt P43235); settings: pH 5; 37 °C
T1 sequence (P43235 whole entry): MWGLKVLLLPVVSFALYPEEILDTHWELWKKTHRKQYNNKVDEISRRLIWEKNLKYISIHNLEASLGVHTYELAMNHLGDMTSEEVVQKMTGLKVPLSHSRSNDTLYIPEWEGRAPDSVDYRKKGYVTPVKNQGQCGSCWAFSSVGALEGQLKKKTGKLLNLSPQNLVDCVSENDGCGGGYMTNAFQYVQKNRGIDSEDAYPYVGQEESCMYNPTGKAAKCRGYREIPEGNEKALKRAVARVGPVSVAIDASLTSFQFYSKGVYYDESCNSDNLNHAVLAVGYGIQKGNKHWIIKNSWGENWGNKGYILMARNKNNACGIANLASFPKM
Experimental: (§1) Cathepsin enzyme activities were calculated from kinetic measurements performed by fluorimetric detection of the product 7-amino-4-methylcoumarin at 37 C in a stirred cuvette. The wavelengths for excitation and emission were 360nm and 440nm.

Cathepsin S = Cathepsin S (Homo sapiens, UniProt P25774); settings: pH 6.5; 37 °C
Experimental: as §1

Procathepsin L = Procathepsin L (Bos taurus, UniProt P25975); settings: pH 6; 37 °C
Experimental: as §1

Papain = molecular target: T2, Papain (Carica papaya, UniProt P00784); settings: pH 6.5; 25 °C
T2 sequence (P00784 whole entry): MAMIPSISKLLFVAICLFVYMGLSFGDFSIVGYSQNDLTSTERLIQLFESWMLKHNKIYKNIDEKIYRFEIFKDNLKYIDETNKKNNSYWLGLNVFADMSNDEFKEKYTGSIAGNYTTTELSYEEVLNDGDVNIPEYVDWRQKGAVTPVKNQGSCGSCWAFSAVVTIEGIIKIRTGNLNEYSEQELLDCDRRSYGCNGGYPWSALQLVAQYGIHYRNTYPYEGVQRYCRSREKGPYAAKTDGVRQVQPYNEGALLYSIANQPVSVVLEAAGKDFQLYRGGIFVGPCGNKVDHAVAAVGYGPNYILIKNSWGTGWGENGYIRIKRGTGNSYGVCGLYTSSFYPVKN
Experimental: Papain enzyme activities were determined by spectrophotometric detection of the product p-nitroaniline at 25 C in a a multicell holder (parallel measurements for each single inhibitor determination) at a wavelength of 405 nm.

Sequence of Procathepsin L (P25975 whole entry): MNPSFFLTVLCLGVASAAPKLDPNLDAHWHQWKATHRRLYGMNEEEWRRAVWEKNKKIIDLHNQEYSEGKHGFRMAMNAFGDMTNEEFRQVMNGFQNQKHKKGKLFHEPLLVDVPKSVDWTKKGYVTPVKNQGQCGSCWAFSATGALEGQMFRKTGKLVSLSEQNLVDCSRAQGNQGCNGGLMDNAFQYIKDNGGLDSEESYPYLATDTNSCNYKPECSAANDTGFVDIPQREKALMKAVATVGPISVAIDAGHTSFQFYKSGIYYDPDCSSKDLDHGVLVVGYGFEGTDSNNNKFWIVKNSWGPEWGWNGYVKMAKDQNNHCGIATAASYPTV
Sequence of Cathepsin S (P25774 whole entry): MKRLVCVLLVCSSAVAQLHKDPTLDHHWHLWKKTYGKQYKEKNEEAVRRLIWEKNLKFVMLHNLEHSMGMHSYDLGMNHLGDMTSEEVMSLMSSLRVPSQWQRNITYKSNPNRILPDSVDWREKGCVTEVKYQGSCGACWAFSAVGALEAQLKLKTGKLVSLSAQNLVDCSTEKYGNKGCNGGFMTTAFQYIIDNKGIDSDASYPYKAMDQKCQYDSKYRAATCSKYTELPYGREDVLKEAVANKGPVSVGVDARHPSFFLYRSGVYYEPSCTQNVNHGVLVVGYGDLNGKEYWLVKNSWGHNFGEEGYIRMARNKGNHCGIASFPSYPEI

Ki (Cathepsin K)	Ki (Cathepsin S)	Ki (Procathepsin L)	Ki (Papain)	SMILES
3800 nM	730 nM	520 nM	–	C[S+](C)CCC(C#N)NC(=O)[C@H](Cc1ccccc1)NC(=O)OC(C)(C)C (stereo partly specified) [Dipeptide nitrile, 8]
3600 nM	650 nM	270 nM	250 nM	CSCCC(C#N)NC(=O)[C@H](Cc1ccccc1)NC(=O)OC(C)(C)C (stereo partly specified) [Dipeptide nitrile, 7]
6300 nM	840 nM	900 nM	1100 nM	CC(C)(C)OC(=O)N[C@@H](Cc1ccccc1)C(=O)N[C@H](C#N)CC#N [Dipeptide nitrile, 10]

From BindingDB's records for doi:10.3109/14756360902797328 (Rheinische Friedrich-Wilhelms-Universitat Bonn, 2009)
